From PubChem BioAssay (NCI)
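Exposure lasted 48 hours, with cells grown in 96-well plates and compounds tested at five concentrations. Here, GI50 denotes the concentration required for 50% inhibition of growth. TGI marks complete inhibition of growth.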

Legend:
Test in all cases: DTP human tumour cell line panel, 48 h
KM12 colon = tested on: KM12 colon
U251 CNS = tested on: U251 CNS
BT-549 breast = tested on: BT-549 breast
SK-MEL-2 melanoma = tested on: SK-MEL-2 melanoma
CAKI-1 renal = tested on: CAKI-1 renal
OVCAR-5 ovarian = tested on: OVCAR-5 ovarian
HL-60(TB) leukemia = tested on: HL-60(TB) leukemia
HCT-116 colon = tested on: HCT-116 colon

Compound | GI50 (KM12 colon) | TGI (KM12 colon) | GI50 (U251 CNS) | TGI (U251 CNS) | GI50 (BT-549 breast) | TGI (BT-549 breast) | GI50 (SK-MEL-2 melanoma) | TGI (SK-MEL-2 melanoma) | GI50 (CAKI-1 renal) | TGI (CAKI-1 renal) | GI50 (OVCAR-5 ovarian) | TGI (OVCAR-5 ovarian) | GI50 (HL-60(TB) leukemia) | TGI (HL-60(TB) leukemia) | GI50 (HCT-116 colon) | TGI (HCT-116 colon)
C[C@@H](Oc1ccc(C(=O)NS(=O)(=O)C(C)(C)C)cc1C(F)(F)F)c1ccc(Oc2ccccc2)cn1 | 2.28 µM | 11.4 µM | 3.18 µM | 13.6 µM | 2.06 µM | 5.83 µM | 6.56 µM | 23.3 µM | 2.7 µM | 17.7 µM | 3.46 µM | 14 µM | 2.4 µM | 8.23 µM | 2.48 µM | 11.2 µM
O=c1ssc(Cl)c1Cl |  | > 10 µM |  | > 10 µM |  | > 10 µM |  | > 10 µM |  | > 10 µM |  | > 10 µM |  | 6.04 µM |  | > 10 µM
Oc1cc2ccccc2c(-c2c(O)c(O)cc3ccccc23)c1O | 2.81 µM | 17.4 µM | 1.32 µM | 20.3 µM | 4.17 µM | 27.8 µM | 2.74 µM | 15.5 µM | 0.852 µM | 6.55 µM | 4.54 µM | 24.1 µM | 1.59 µM | > 20.6 µM | 0.427 µM | 11.9 µM
COC1=CC(c2ccc[nH]2)=N/C1=C\c1[nH]c(C)c(C(=O)CCCCC(=O)Oc2ccc3c(c2)CCC2C3CC[C@]3(C)[C@@H](O)CC[C@@H]23)c1C (stereo partly drawn) | 6.66 µM | > 100 µM | 7.79 µM | > 100 µM | 4.39 µM | > 100 µM | 9.88 µM | > 100 µM | 5.45 µM | > 100 µM | > 100 µM | > 100 µM | > 100 µM | > 100 µM | 3.1 µM | 13.6 µM
CCCCCCCCCCCCOC1C(CNC(=O)C2OC3OC(C)(C)OC3C2NC(=O)Nc2ccc(CC(=O)NC(Cc3ccccc3)C(=O)O)cc2)OC2OC(C)(C)OC21 (stereo not drawn) | > 25 µM | > 25 µM | > 25 µM | > 25 µM | 22.7 µM | > 25 µM | > 25 µM | > 25 µM | > 25 µM | > 25 µM | > 25 µM | > 25 µM | > 25 µM | > 25 µM | > 25 µM | > 25 µM
O=C(O)c1ccc(C(=O)O)c(C(=O)Nc2ccc3c(c2)C(=O)c2ccccc2-3)c1 |  | > 100 µM |  | > 100 µM |  | > 100 µM |  | > 100 µM |  | > 100 µM |  | > 100 µM |  | > 100 µM |  | > 100 µM
COc1ccc(Nc2cc(C)nc(NCCCNc3ccnc4cc(Cl)ccc34)n2)cc1 | 1.88 µM | 3.58 µM | 1.39 µM | 2.8 µM | 1.86 µM | 4.67 µM | 2.19 µM | 3.76 µM | 1.5 µM | 2.87 µM | 2.35 µM | 6.69 µM | 2.37 µM | 5.66 µM | 1.27 µM | 3.82 µM
COc1cc(C(=O)N/N=C/c2ccc(N(C)C)cc2)cc(OC)c1OC | 0.428 µM | 26.4 µM | 0.436 µM | > 100 µM | 0.696 µM | > 26.7 µM | 1.15 µM | > 81.3 µM | 3.7 µM | > 100 µM | 3.29 µM | > 100 µM | 0.303 µM |  | 0.392 µM | > 100 µM
O=C1c2cccc(NCCN=Cc3ccccc3O)c2C(=O)c2c(NCCN=Cc3ccccc3O)cccc21 | 0.353 µM | 1.44 µM | 0.521 µM | 4.62 µM | 2.77 µM | 9.37 µM | 1.2 µM | 3.67 µM | 0.953 µM | 4.82 µM | 1.41 µM | 5.43 µM | 1.09 µM | 3.4 µM | 0.387 µM | 
N#C[Se]CCCNS(=O)(=O)C1CC2C=CC1C2 (stereo not drawn) | 1.4 µM | 6.43 µM | 1.08 µM | 3.36 µM | 0.192 µM | 0.388 µM | 2 µM | 6.15 µM | 0.416 µM | 1.59 µM | 0.828 µM | 5.13 µM | 0.326 µM | 1.31 µM | 0.276 µM | 0.827 µM
Cc1cc(N(CCCl)CCCl)ccc1C=Nc1ccc2ccccc2c1 | 66.8 µM | > 100 µM | 9.98 µM | > 100 µM | 19.8 µM | > 100 µM | 40 µM | 98 µM | 1.51 µM | > 100 µM | 2.52 µM | > 100 µM | 8.6 µM | > 68.6 µM | 38 µM | > 100 µM
